We go through four molecules from PMC8839448, “Novel Pyridothienopyrimidine Derivatives: Design, Synthesis and Biological Evaluation as Antimicrobial and Anticancer Agents” (Molecules, 2022).

In brackets after ≈: the same amount, converted by molar mass.

Series [1] relates to Escherichia coli 8739. Description: In vitro antibacterial activity, MIC by broth dilution. The format is cell-based. Conditions: Gram −ve bacteria.
The nature of series [2]: Cytotoxicity against normal cells, MTT assay. To be noted: human, WISH normal cells.
Source text: The cytotoxicity was estimated as IC50 in μM for the tested compounds and the reference drug doxorubicin, and are listed in Table 3.
For series [3], the system named is all the tested yeasts and fungi strains. Put plainly: Antifungal MIC, range over the panel. The series is classed as cell-based.
Series [4] deals with EGFR kinase (Homo sapiens, UniProt P00533). Description: In vitro EGFR kinase inhibitory assay (Kinase-Glo MAX kit). To be noted: EGFR IC50, EGFR kinase assay kit, triplicate, ± SD.
Procedure: The assay kit is designed to measure EGFR Kinase activity for screening applications using Kinase-Glo® MAX as a detection reagent. The luminescence was measured using a microplate reader (Infinite M200 microplate reader, Tecan, Männedorf, Switzerland) [54]. All assays were performed in triplicate and the relative inhibition (%) of inhibitors was then calculated via comparison with the control with no inhibitor.
In vitro EGFR kinase assay
The assay Kit is designed to measure EGFR Kinase
activity for screening applications using Kinase-Glo® MAX as a detection reagent
using Kinase-Glo® MAX as a detection reagent. Thaw 5x Kinase Buffer 1: ATP and
PTK substrate Poly (Glu:Tyr 4:1) (10 mg/ml) kinase was provided. Then the master
mixture was prepared: N wells x (6 μl 5x Kinase Buffer 1 + 1 µl ATP (500 µM) + 1
µl PTK substrate Poly (Glu:Tyr 4:1) (10 mg/ml)+ 17 μl water) and 25 μl of the
mixture was added to every well. The tested compounds were dissolved in DMSO,
well labeled as “Positive Control", 5 μl of the same solution of the reference drug
erlotinib and “Blank”, 5 μl of the same solution without inhibitor (Inhibitor buffer).
ml of 1x Kinase Buffer 1) was prepared by mixing 600 µl of 5x Kinase Buffer 1 with
The reaction initiated by adding 20 µl of diluted EGFR enzyme to the wells designated “Positive Control” and "Test Inhibitor Control". Incubate at 30°C for 40
minutes. Thaw Kinase-G lo Max reagent. After the 40 minute reaction, 50 µl of
Kinase-Glo Max reagent was added to each well. The plate was covered with
aluminum foil and incubate at room temperature for 15 minutes. Then the
luminescence was measured using the microplate reader (Infinite M200 microplate
reader, Tecan, Männedorf, Switzerland). All assays were performed in triplicate. The
relative inhibition (%) of inhibitors were then calculated compared to the control with
no inhibitor. Then the IC50 values and their standard deviation (SD) for the tested
compounds and the reference drug were determined in (nM).
In series [5] the test system is Aspergillus flavus. Put plainly: In vitro antifungal activity, MIC by broth dilution. The format is cell-based. To be noted: fungi.
Series [6] has as its system Salmonella typhimurium 14028. Put plainly: In vitro antibacterial activity, MIC by broth dilution. The format is cell-based. Conditions: Salmonella enterica, Gram −ve bacteria, read-out: MIC S. typhimurium.
In series [7] the test system is Candida tropicals 750. Put plainly: In vitro antifungal activity, MIC by broth dilution. The format is cell-based. To be noted: yeast, read-out: MIC C. tropicals.
Series [8] deals with five bacterial strains. Put plainly: Antibacterial MIC, range over the panel. The series is classed as cell-based.
Series [9] relates to HepG2 and MCF-7 cancer cell lines. Description: Cytotoxicity, MTT assay, range over both cancer cell lines. The series is classed as cell-based, human. To be noted: Homo sapiens; range over HepG2 and MCF-7; read-out: IC50 range, cytotoxic activity against both cell lines.
The subject of series [10] is five bacterial and five fungal strains. Description: Antimicrobial MIC, range over bacterial and fungal strains. The format is cell-based. Conditions: range over bacterial and fungal strains.
Series [11] deals with Saccharomycese cerevisiae. Description: In vitro antifungal activity, MIC by broth dilution. The format is cell-based. To be noted: Saccharomyces cerevisiae, yeast, read-out: MIC S. cerevisiae.
The subject of series [12] is Aspergillus niger EM77 (KF774181). The series is described as above. The series is classed as cell-based. Conditions: fungi.
Series [13] has as its system Staphylococcus aureus 25923. Put plainly: In vitro antibacterial activity, MIC by broth dilution. The series is classed as cell-based. To be noted: Gram +ve bacteria, read-out: MIC S. aureus.
The test system of series [14] is breast cancer (MCF-7) cells. Put plainly: Cytotoxicity, MTT assay. The format is cell-based, human. Conditions: Homo sapiens, MCF7, MCF7 cells, read-out: Cytotoxic activity IC50 MCF7.
Series [15] has as its system Candida albicans 10231. Description: In vitro antifungal activity, MIC by broth dilution. The series is classed as cell-based. Conditions: yeast, read-out: MIC C. albicans.
The test system of series [16] is hepatocellular carcinoma (HepG2) cells. Put plainly: Cytotoxicity, MTT assay. To be noted: Homo sapiens, read-out: Cytotoxic activity IC50 HepG2. The series is classed as cell-based.
In series [17] the test system is Bacillus subtilis 6633. Description: In vitro antibacterial activity, MIC by broth dilution. The format is cell-based. Conditions: Gram +ve bacteria, read-out: MIC B. subtilis.
Series [18] has as its system Bacillus cereus 33018. The series is described as above. The format is cell-based. Conditions: Gram +ve bacteria, read-out: MIC B. cereus.
In series [19] the test system is E. coli. To be noted: Figure 1, reported agents; ref [21],[22],[33],[34]; cited from earlier work.
Series [20] has as its system HepG2 and MCF-7. To be noted: Figure 1, reported agents; ref [21],[22],[33],[34]; read-out: IC50 range HepG2 and MCF-7; cited from earlier work.
The test system of series [21] is S. aureus. To be noted: Figure 1, reported agents; ref [21],[22],[33],[34]; cited from earlier work.
Series [22] concerns B. cereus. To be noted: Figure 1, reported agents; ref [21],[22],[33],[34]; cited from earlier work.
Series [23] relates to S. typhimurium. To be noted: Figure 1, reported agents; ref [21],[22],[33],[34]; cited from earlier work.

EGFR kinase, sequence (P00533 25-1210): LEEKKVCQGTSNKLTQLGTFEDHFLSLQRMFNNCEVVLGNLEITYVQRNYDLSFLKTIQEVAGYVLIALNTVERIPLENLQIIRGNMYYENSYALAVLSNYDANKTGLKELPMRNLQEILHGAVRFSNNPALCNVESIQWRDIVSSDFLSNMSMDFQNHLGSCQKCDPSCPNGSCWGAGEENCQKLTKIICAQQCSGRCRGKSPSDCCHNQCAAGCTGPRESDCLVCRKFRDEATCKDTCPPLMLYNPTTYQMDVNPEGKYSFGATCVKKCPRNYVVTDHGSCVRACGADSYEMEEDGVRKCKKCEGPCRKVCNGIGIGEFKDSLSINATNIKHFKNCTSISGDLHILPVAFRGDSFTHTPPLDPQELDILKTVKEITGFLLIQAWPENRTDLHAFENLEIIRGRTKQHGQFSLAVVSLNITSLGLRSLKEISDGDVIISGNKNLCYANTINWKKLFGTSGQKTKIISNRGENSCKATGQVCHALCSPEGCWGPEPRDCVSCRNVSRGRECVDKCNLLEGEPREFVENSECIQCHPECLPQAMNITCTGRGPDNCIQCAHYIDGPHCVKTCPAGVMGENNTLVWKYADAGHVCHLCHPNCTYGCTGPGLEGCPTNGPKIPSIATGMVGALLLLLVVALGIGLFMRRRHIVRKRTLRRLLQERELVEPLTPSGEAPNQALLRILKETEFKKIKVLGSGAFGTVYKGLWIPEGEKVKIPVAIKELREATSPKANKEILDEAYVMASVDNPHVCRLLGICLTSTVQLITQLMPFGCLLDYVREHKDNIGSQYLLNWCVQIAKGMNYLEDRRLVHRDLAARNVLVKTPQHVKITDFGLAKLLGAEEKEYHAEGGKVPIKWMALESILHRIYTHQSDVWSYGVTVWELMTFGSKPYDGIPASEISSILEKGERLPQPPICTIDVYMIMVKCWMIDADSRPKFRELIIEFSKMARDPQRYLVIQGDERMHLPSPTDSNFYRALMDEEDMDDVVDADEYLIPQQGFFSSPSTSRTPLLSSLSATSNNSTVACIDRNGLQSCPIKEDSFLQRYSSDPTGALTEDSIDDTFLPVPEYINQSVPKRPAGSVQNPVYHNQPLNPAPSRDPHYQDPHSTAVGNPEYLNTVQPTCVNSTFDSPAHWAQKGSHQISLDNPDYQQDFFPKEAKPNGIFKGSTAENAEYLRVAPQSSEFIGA

With `Cc1ccc(-c2cc(-c3ccccc3)nc3sc4c(=O)[nH]c(CN5CCOCC5)nc4c23)cc1` [Compound 5a, 2-(Morpholinomethyl)-7-phenyl-9-(p-tolyl)pyrido[3′,2′:4,5]thieno[3,2-d]pyrimidin-4(3H)-one], the melting point came to 245 °C. In series [1], this molecule returned a minimum inhibitory concentration (MIC) of 8 µg/mL (≈ 17.1 µM). In [2], this molecule returned a concentration for half-maximal inhibition (IC50) of 408 ± 15.9 µM. Also, in series [3], the “MIC range against the tested yeasts and fungi strains” value is 4 to 16 µg/mL. The molecule also returned an IC50 in series [4] of 9.66 ± 0.08 nM. Further, in series [5], the MIC was determined as 8 µg/mL (≈ 17.1 µM). Moreover, the minimum inhibitory concentration (MIC) in series [6] is 16 µg/mL (≈ 34.1 µM). For the same molecule, the MIC in series [7] turned out to be 8 µg/mL (≈ 17.1 µM). In addition, the “MIC range against the tested bacterial strains” value in series [8] lay within 8 to 16 µg/mL. The IC50 in series [9] is 1170 to 2790 nM. For the same molecule, in [10], the “MIC range, antibacterial and antifungal” value lay within 4 to 16 µg/mL. Further, the minimum inhibitory concentration (MIC) in series [11] is 8 µg/mL (≈ 17.1 µM). In addition, the lowest concentration to inhibit growth in series [12] (MIC) was 16 µg/mL (≈ 34.1 µM). Besides, the MIC in series [13] amounted to 8 µg/mL (≈ 17.1 µM). In series [14], the half-maximal inhibitory concentration (IC50) came out at 2790 ± 180 nM. The MIC in [15] was 16 µg/mL (≈ 34.1 µM). In addition, in series [16], the half-inhibitory concentration (IC50) worked out at 1990 ± 90 nM. For the same molecule, the minimum inhibitory concentration (MIC) in [17] amounted to 8 µg/mL (≈ 17.1 µM). Further, the MIC in series [18] is 16 µg/mL (≈ 34.1 µM).
For `CCOC(=O)c1sc2nc(-c3ccc(OC)cc3)cc(-c3cccs3)c2c1N` [III], the “MIC E. coli” value in [19] is 7.80 µg/mL (≈ 19 µM). The IC50 in series [20] was 33.2 to 34.8 µM. Also, in series [21], the “MIC S. aureus” value was 7.80 µg/mL (≈ 19 µM).
As for `COc1ccc(-c2cc(-c3ccco3)nc3sc(C(N)=O)c(N=C4CCCCC4)c23)cc1` [II], in series [19], the “MIC E. coli” value was 15.60 µg/mL (≈ 35 µM). Also, the “MIC B. cereus” value in series [22] is 15.60 µg/mL (≈ 35 µM). Further, the “MIC S. aureus” value in series [21] was 15.60 µg/mL (≈ 35 µM).
For `NC(=O)c1sc2nc(-c3ccco3)cc(-c3cccs3)c2c1N` [I], the “MIC E. coli” value in [19] was 15.60 µg/mL (≈ 45.7 µM). Besides, in [23], the “MIC S. typhimurium” value was 15.60 µg/mL (≈ 45.7 µM).
